# Measurements taken from patent US20140199380A1, “PHARMACEUTICAL COMPOSITION COMPRISING AN ALGAE ADAPTED TO INCREASE THE EFFICACY OF AN ENZYMATIC INHIBITOR” (priority 2010, published 2014).
# Key:
# [1] = tadalafil as normally administered, typical value; cited from earlier work
# [2] = Plasma concentration of Tadalafil after a single dose (pharmacokinetics, FIG. 1); conditions: male, human, in vivo, 20 mg
# Protocol: In both cases, a single dose of a pharmaceutical composition equivalent to 20 mg of tadalafil was administered to a test population of otherwise healthy subjects suffering from ED and the plasma concentration of Tadalafil was measured at intervals following the administration.
smiles,measurement,setting,value
"CN1CC(=O)N2[C@H](c3ccc4c(c3)OCO4)c3[nH]c4ccccc4c3C[C@@H]2C1=O [Tadalafil, (6R,12aR)-6-(1,3-benzodioxol-5-yl)-2,3,6,7,12,12a-hexahydro-2-methylpyrazino[1′,2′:1,6]pyrido[3,4-b]indole-1,4-dione]",Half-life in the body,[1],17.5 h
same,half-life,[2],17.5 h
